Results on seven cell lines are retold here after the supplement of paper PMC10307832.

Assay in all cases: relative viability (nuclei count vs DMSO), 5 days (fraction); higher = more cells survive
Compound in one experiment: COc1ncc(-c2ccc3nccc(-c4ccnnc4)c3c2)cc1NS(=O)(=O)c1ccc(F)cc1F [Omipalisib]
The essentials: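 Five library-drug doses, separated by factors of √10, were pinned into 1536-well plates holding lung cancer cell lines after an overnight stay at 37 °C. Cells were fixed, permeabilised and Hoechst-stained in one step after 5 days without medium change, then imaged at 4×. Viability compares treated-well with vehicle-well nuclei, counted in MetaXpress, as a median across plates. Passing plates had control CV below 25% and at least one doubling.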

Compound in the experiment “Omipalisib + Trametinib”: COc1ncc(-c2ccc3nccc(-c4ccnnc4)c3c2)cc1NS(=O)(=O)c1ccc(F)cc1F [Omipalisib] + CC(=O)Nc1cccc(-n2c(=O)n(C3CC3)c(=O)c3c(Nc4ccc(I)cc4F)n(C)c(=O)c(C)c32)c1 [Trametinib] (partner 0.02 µM)
An outline of the steps: (§1)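 Five library-drug doses in √10 steps were combined with a fixed anchor-drug dose, or a single drug was given alone, by pin tool to lung cancer cell lines in 1536-well plates the day after seeding. Nuclei were stained and counted after 5 days. Relative viability is the nuclei count in treated wells over that in vehicle wells, taken as the median of duplicate plates.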

Compound in the experiment “Omipalisib + Bortezomib”: COc1ncc(-c2ccc3nccc(-c4ccnnc4)c3c2)cc1NS(=O)(=O)c1ccc(F)cc1F [Omipalisib] + CC(C)C[C@H](NC(=O)[C@H](Cc1ccccc1)NC(=O)c1cnccn1)B(O)O [Bortezomib] (partner 0.002 µM)
The essentials:
as §1

Compound in the experiment “Omipalisib + Phenformin”: COc1ncc(-c2ccc3nccc(-c4ccnnc4)c3c2)cc1NS(=O)(=O)c1ccc(F)cc1F [Omipalisib] + N=C(N)NC(=N)NCCc1ccccc1 [Phenformin] (partner 250 µM)
The essentials:
as §1

Compound in the experiment “Omipalisib + Decitabine”: COc1ncc(-c2ccc3nccc(-c4ccnnc4)c3c2)cc1NS(=O)(=O)c1ccc(F)cc1F [Omipalisib] + Nc1ncn([C@H]2C[C@H](O)[C@@H](CO)O2)c(=O)n1 [Decitabine] (partner 2 µM)
The essentials: as §1

Compound in the experiment “Omipalisib + Vorinostat”: COc1ncc(-c2ccc3nccc(-c4ccnnc4)c3c2)cc1NS(=O)(=O)c1ccc(F)cc1F [Omipalisib] + O=C(CCCCCCC(=O)Nc1ccccc1)NO [Vorinostat] (partner 1 µM)
The essentials:
as §1

On to NCI-H1666, for which the relative viability worked out at 1.01 with Omipalisib (0.0003 µM); 0.818 with Omipalisib (0.003 µM); 0.651 with Omipalisib (0.03 µM); 0.872 with Omipalisib + Trametinib (first compound 0.0003 µM); 0.592 in the experiment with Omipalisib + Trametinib (first compound 0.003 µM); 0.61 with Omipalisib + Trametinib (first compound 0.03 µM). The relative viability with Omipalisib + Bortezomib (first compound 0.0003 µM) stood at 0.749; in the experiment with Omipalisib + Bortezomib (first compound 0.003 µM), 0.473; with Omipalisib + Bortezomib (first compound 0.03 µM) it was 0.333; in the experiment with Omipalisib + Phenformin (first compound 0.0003 µM), 0.547; with Omipalisib + Phenformin (first compound 0.003 µM), 0.559; with Omipalisib + Phenformin (first compound 0.03 µM), 0.487. Moreover, the relative viability stood at 0.843 in the experiment with Omipalisib + Decitabine (first compound 0.0003 µM); 0.614 with Omipalisib + Decitabine (first compound 0.003 µM); 0.567 with Omipalisib + Decitabine (first compound 0.03 µM); 1.02 in the experiment with Omipalisib + Vorinostat (first compound 0.0003 µM); 0.881 with Omipalisib + Vorinostat (first compound 0.003 µM); 0.815 with Omipalisib + Vorinostat (first compound 0.03 µM).
Take NCI-H650: the relative viability with Omipalisib (0.0003 µM) came to 0.876; in the experiment with Omipalisib (0.003 µM), 0.745; with Omipalisib (0.03 µM), 0.51; with Omipalisib + Trametinib (first compound 0.0003 µM) it was 0.925; in the experiment with Omipalisib + Trametinib (first compound 0.003 µM), 0.628; with Omipalisib + Trametinib (first compound 0.03 µM) it was 0.393. Moreover, the relative viability came out at 0.749 in the experiment with Omipalisib + Bortezomib (first compound 0.0003 µM); 0.501 with Omipalisib + Bortezomib (first compound 0.003 µM); 0.293 with Omipalisib + Bortezomib (first compound 0.03 µM); 0.443 with Omipalisib + Phenformin (first compound 0.0003 µM); 0.401 with Omipalisib + Phenformin (first compound 0.003 µM); 0.332 with Omipalisib + Phenformin (first compound 0.03 µM). Also, the relative viability with Omipalisib + Decitabine (first compound 0.0003 µM) worked out at 0.375; in the experiment with Omipalisib + Decitabine (first compound 0.003 µM), 0.257; with Omipalisib + Decitabine (first compound 0.03 µM), 0.321; with Omipalisib + Vorinostat (first compound 0.0003 µM), 0.325; in the experiment with Omipalisib + Vorinostat (first compound 0.003 µM), 0.337; with Omipalisib + Vorinostat (first compound 0.03 µM), 0.186.
Take NCI-H520: the relative viability with Omipalisib (0.0003 µM) was 0.787; in the experiment with Omipalisib (0.003 µM) it was 0.588; in the experiment with Omipalisib (0.03 µM) it was 0.252; in the experiment with Omipalisib + Trametinib (first compound 0.0003 µM), 0.576; with Omipalisib + Trametinib (first compound 0.003 µM), 0.314; with Omipalisib + Trametinib (first compound 0.03 µM), 0.172. Further, the relative viability with Omipalisib + Bortezomib (first compound 0.0003 µM) came out at 0.465; with Omipalisib + Bortezomib (first compound 0.003 µM), 0.254; with Omipalisib + Bortezomib (first compound 0.03 µM), 0.171; in the experiment with Omipalisib + Phenformin (first compound 0.0003 µM), 0.405; with Omipalisib + Phenformin (first compound 0.003 µM), 0.209; in the experiment with Omipalisib + Phenformin (first compound 0.03 µM), 0.2. In addition, the relative viability with Omipalisib + Decitabine (first compound 0.0003 µM) turned out to be 0.51; with Omipalisib + Decitabine (first compound 0.003 µM) it was 0.369; in the experiment with Omipalisib + Decitabine (first compound 0.03 µM) it was 0.233; with Omipalisib + Vorinostat (first compound 0.0003 µM) it was 0.623; with Omipalisib + Vorinostat (first compound 0.003 µM), 0.458; with Omipalisib + Vorinostat (first compound 0.03 µM), 0.214.
As to HCC-366, the relative viability in the experiment with Omipalisib (0.0003 µM) stood at 0.938; with Omipalisib (0.003 µM), 0.853; with Omipalisib (0.03 µM) it was 0.366; in the experiment with Omipalisib + Trametinib (first compound 0.0003 µM) it was 0.245; with Omipalisib + Trametinib (first compound 0.003 µM), 0.152; with Omipalisib + Trametinib (first compound 0.03 µM) it was 0.0615. For the same cell line, the relative viability in the experiment with Omipalisib + Bortezomib (first compound 0.0003 µM) was 0.918; with Omipalisib + Bortezomib (first compound 0.003 µM), 0.707; with Omipalisib + Bortezomib (first compound 0.03 µM) it was 0.168; in the experiment with Omipalisib + Phenformin (first compound 0.0003 µM), 0.625; with Omipalisib + Phenformin (first compound 0.003 µM), 0.263; with Omipalisib + Phenformin (first compound 0.03 µM), 0.181. For the same cell line, the relative viability worked out at 0.285 with Omipalisib + Decitabine (first compound 0.0003 µM); 0.217 with Omipalisib + Decitabine (first compound 0.003 µM); 0.105 with Omipalisib + Decitabine (first compound 0.03 µM); 0.394 with Omipalisib + Vorinostat (first compound 0.0003 µM); 0.223 with Omipalisib + Vorinostat (first compound 0.003 µM); 0.113 with Omipalisib + Vorinostat (first compound 0.03 µM).
For NCI-H727, the relative viability was determined as 1.05 in the experiment with Omipalisib (0.0003 µM); 0.68 in the experiment with Omipalisib (0.003 µM); 0.544 with Omipalisib (0.03 µM); 0.381 with Omipalisib + Trametinib (first compound 0.0003 µM); 0.337 with Omipalisib + Trametinib (first compound 0.003 µM); 0.264 in the experiment with Omipalisib + Trametinib (first compound 0.03 µM). Further, the relative viability with Omipalisib + Bortezomib (first compound 0.0003 µM) was determined as 0.841; with Omipalisib + Bortezomib (first compound 0.003 µM) it was 0.591; with Omipalisib + Bortezomib (first compound 0.03 µM) it was 0.511; with Omipalisib + Phenformin (first compound 0.0003 µM) it was 0.817; with Omipalisib + Phenformin (first compound 0.003 µM), 0.447; in the experiment with Omipalisib + Phenformin (first compound 0.03 µM), 0.509. Further, the relative viability with Omipalisib + Decitabine (first compound 0.0003 µM) was found to be 0.778; in the experiment with Omipalisib + Decitabine (first compound 0.003 µM) it was 0.712; with Omipalisib + Decitabine (first compound 0.03 µM), 0.755; in the experiment with Omipalisib + Vorinostat (first compound 0.0003 µM), 1.1; with Omipalisib + Vorinostat (first compound 0.003 µM), 1.02; with Omipalisib + Vorinostat (first compound 0.03 µM) it was 0.987.
Regarding NCI-H1355, the relative viability in the experiment with Omipalisib (0.0003 µM) turned out to be 0.945; with Omipalisib (0.003 µM), 0.664; with Omipalisib (0.03 µM), 0.578; with Omipalisib + Trametinib (first compound 0.0003 µM), 0.361; with Omipalisib + Trametinib (first compound 0.003 µM), 0.263; in the experiment with Omipalisib + Trametinib (first compound 0.03 µM) it was 0.194. The relative viability is 1.16 with Omipalisib + Bortezomib (first compound 0.0003 µM); 0.925 with Omipalisib + Bortezomib (first compound 0.003 µM); 0.375 with Omipalisib + Bortezomib (first compound 0.03 µM); 0.433 in the experiment with Omipalisib + Phenformin (first compound 0.0003 µM); 0.351 with Omipalisib + Phenformin (first compound 0.003 µM); 0.277 with Omipalisib + Phenformin (first compound 0.03 µM). The relative viability with Omipalisib + Decitabine (first compound 0.0003 µM) came out at 0.366; in the experiment with Omipalisib + Decitabine (first compound 0.003 µM), 0.326; with Omipalisib + Decitabine (first compound 0.03 µM), 0.242; in the experiment with Omipalisib + Vorinostat (first compound 0.0003 µM), 0.646; in the experiment with Omipalisib + Vorinostat (first compound 0.003 µM), 0.396; in the experiment with Omipalisib + Vorinostat (first compound 0.03 µM), 0.232.
Consider LU99A, for which the relative viability with Omipalisib (0.0003 µM) was found to be 0.936; in the experiment with Omipalisib (0.003 µM), 0.847; in the experiment with Omipalisib (0.03 µM), 0.395; with Omipalisib + Trametinib (first compound 0.0003 µM), 0.5; in the experiment with Omipalisib + Trametinib (first compound 0.003 µM), 0.367; with Omipalisib + Trametinib (first compound 0.03 µM), 0.22. Also, the relative viability with Omipalisib + Bortezomib (first compound 0.0003 µM) stood at 1.01; with Omipalisib + Bortezomib (first compound 0.003 µM) it was 0.728; with Omipalisib + Bortezomib (first compound 0.03 µM), 0.495; in the experiment with Omipalisib + Phenformin (first compound 0.0003 µM), 0.802; in the experiment with Omipalisib + Phenformin (first compound 0.003 µM), 0.695; in the experiment with Omipalisib + Phenformin (first compound 0.03 µM), 0.578. The relative viability in the experiment with Omipalisib + Decitabine (first compound 0.0003 µM) is 0.912; with Omipalisib + Decitabine (first compound 0.003 µM), 0.519; with Omipalisib + Decitabine (first compound 0.03 µM) it was 0.311; with Omipalisib + Vorinostat (first compound 0.0003 µM), 0.441; with Omipalisib + Vorinostat (first compound 0.003 µM), 0.353; with Omipalisib + Vorinostat (first compound 0.03 µM) it was 0.228.
